These results are taken from article PMC10778198, “First-in-Human Dose-Escalation Study of the Novel Oral Depsipeptide Class I-Targeting HDAC Inhibitor Bocodepsin (OKI-179) in Patients with Advanced Solid Tumors” (Cancers, 2023).

Read-outs that look alike come from different tables or passages of the source.

Data set [1] is described as follows: plasma pharmacokinetics by LC-MS/MS in patients. The data set is classed as in vivo, human. The following applies: for Tmax: read-out: Tmax of OKI-006 (Free). As to the method:
Blood samples were collected immediately prior to the first dose on cycle 1 and day 1, and then at 0.25, 0.5, 1, 2, 4, 8, and 24 h after taking OKI-179 on days 1 and 15. Additional samples were collected pre-dose and 2 and 4 h after OKI-179 administration on day 18 in later cohorts. Blood samples were stabilized with sodium fluoride and formic acid immediately after collection to arrest the additional conversion of the prodrug OKI-179 to OKI-006. Plasma was further stabilized using ascorbic acid prior to low-temperature storage.
Plasma concentrations of OKI-179 and OKI-006 were analyzed using validated liquid chromatography-mass spectrometry (LC-MS/MS) (Quintara Discovery Inc., Hayward, CA, USA). OKI-006 contains a free thiol moiety that can reversibly react with endogenous molecules in the blood and tissue, resulting in “bound” OKI-006. The unreacted OKI-006 is considered “free”. As bound OKI-006 can reversibly convert to free OKI-006 in vivo, both the free and “total” (free plus bound) concentrations of OKI-006 are considered pharmacologically relevant and were therefore quantified as part of this study. Bioanalytically, the total OKI-006 was measured by chemically converting all bound OKI-006 to free OKI-006 prior to analysis using the free OKI-006 bioanalytical method.
The AUClast was calculated from time zero to the time of the last quantifiable concentration for OKI-179, free OKI-006, and total OKI-006.

The subject of a further data set is HDAC1. Also noted: method as in PMID 34965958. The settings on record: cell-free; cited from earlier work.
For a further data set, the system named is HDAC2. On the set-up: method as in PMID 34965958. The following applies: cell-free; cited from earlier work.
The subject of the next data set is HDAC3. On the set-up: method as in PMID 34965958. The following applies: cell-free; cited from earlier work.
The subject of another data set is HDAC8. On the set-up: method as in PMID 34965958. The settings on record: cell-free; cited from earlier work.
For a further data set, the system named is Class IIa HDACs. On the set-up: method as in PMID 34965958. The settings on record: cited from earlier work.
Where [2] appears, read: OKI-179 300-mg 5:2, Cycle 1 Day 1, geometric mean.
The mark [3] stands for this setting: OKI-179 300-mg 5:2, Cycle 1 Day 15, geometric mean.

For the compound `CC(C)[C@@H]1NC(=O)C(C)(C)NC(=O)c2csc(n2)CNC(=O)C[C@@H](/C=C/CCS)OC1=O` [OKI-006], the “AUClast of OKI-006 (Free)” value in data set [1] (setting [2]) was 2790 ng·h/mL; in data set [1] (setting [3]), 3180 ng·h/mL. The entries for the “MRAUC, OKI-006 (Free) to OKI-179 metabolite ratio based on AUClast” value in data set [1] (setting [2]) and in data set [1] (setting [3]) were 13.3 and 10.3, respectively. The “Cmax of OKI-006 (Free)” value in data set [1] (setting [3]) stood at 2220 ng/mL. Also, in data set [1] (OKI-179 doses of 200 mg or greater), the “Cmax and AUC versus preclinical threshold for efficacy” value is reported as “exceeded the preclinical threshold for efficacy”. The time to peak (Tmax) was determined as 41.5 min in data set [1] (human, plasma, oral, 300 mg, OKI-179 300-mg 5:2, Cycle 1 Day 1, median) and 56 min in data set [1] (human, plasma, oral, 300 mg, OKI-179 300-mg 5:2, Cycle 1 Day 15, median). For the same compound, the half-life in data set [1] (human, plasma, oral, 300 mg, OKI-179 300-mg 5:2, Cycle 1 Day 15, median, read-out: t1/2 of OKI-006 (Free) (converted)) was 206 min. Moreover, the half-inhibitory concentration (IC50) was 1.2 nM in the data set on HDAC1; 2.4 nM in the data set on HDAC2; 2 nM in the data set with HDAC3; 47 nM in the data set with HDAC8; above 1000 nM with Class IIa HDACs.

A word on the Tmax: it is the time at which the peak concentration occurs. Usually IC50 stands for the concentration that gives 50% inhibition.
